Measurements reported in article doi:10.1101/496141v1 (bioRxiv, 2018).

Tests used:
Format in all cases: in vivo, mouse
Tg2576 mice = test: Contextual fear conditioning in Tg2576 mice; settings: 7 months old mice, 20 mg/kg i.p. 1h before training; vs Tg2576 SCR
[1] = tested on: ERK phosphorylation (pERK); test: pERK positive cells in dorsal striatum after i.p. RB5; settings: single dose 20 mg/kg i.p., n=5 mice/group, vs SCR at 1h
Hdh^Q111/+ knock-in mice = test: Hdh Q111/+ knock-in mice: striatal caspase-3 and pERK; settings: 20 mg/kg i.p. for 8 days; twice a day, 7 days; vs SCR

**Q.** With “GRKKRRQRRRPPQGGGGGEPRRTEGVGPGVPGEVEMVKGQPFDV [RB5]” as the sequence, how does the “contextual fear memory impairment in Tg2576 mice (% of time spent freezing, 24h)” value (Tg2576 mice) read?
**A.** The value was “fully rescued”.

**Q.** And the “duration of enhancement of ERK phosphorylation in dorsal striatum” value [1]?
**A.** Its value is “up to 6 h”.

**Q.** What about the “caspase-3 levels in striatum of Hdh^Q111/+ mice” value (Hdh^Q111/+ knock-in mice) of the same sequence?
**A.** The value was “diminished caspase-3 levels”.
